According to patent US8436012B2, “Imidazopyridin-2-one derivatives” (Daiichi Sankyo Company, Limited, priority 2008, dated 2013):

Assays:
WM-266-4 cells = test: Cell Proliferation Inhibitory Test; assay type: cell-based; details: Homo sapiens, 72 h, cultured three days with test compound, MTT, read-out: 50% cell proliferation inhibitory activity (GI50 value)
Procedure, shortened: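 Cells cultured overnight, then exposed to serially diluted compound for three days; cell amount read by MTT. GI50 solved from 100×[(T−T0)/(C−T0)]=50, with T0 the value at time of compound addition and C the untreated three-day control.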

human mTOR = target: T1, human mTOR (Homo sapiens, UniProt P42345); test: mTOR Kinase Activity Inhibition Test; assay type: biochemical; details: His-tagged mTOR (1362C), biotinylated peptide substrate, ATP, 3 hours at room temperature, fluorescence resonance energy transfer 665 nm/620 nm; read-out: IC50 value of mTOR enzyme inhibitory activity
T1 construct: the portion corresponding to 1362-2549aa at the C terminus of human mTOR; made in house
T1 sequence (P42345 1362-2549): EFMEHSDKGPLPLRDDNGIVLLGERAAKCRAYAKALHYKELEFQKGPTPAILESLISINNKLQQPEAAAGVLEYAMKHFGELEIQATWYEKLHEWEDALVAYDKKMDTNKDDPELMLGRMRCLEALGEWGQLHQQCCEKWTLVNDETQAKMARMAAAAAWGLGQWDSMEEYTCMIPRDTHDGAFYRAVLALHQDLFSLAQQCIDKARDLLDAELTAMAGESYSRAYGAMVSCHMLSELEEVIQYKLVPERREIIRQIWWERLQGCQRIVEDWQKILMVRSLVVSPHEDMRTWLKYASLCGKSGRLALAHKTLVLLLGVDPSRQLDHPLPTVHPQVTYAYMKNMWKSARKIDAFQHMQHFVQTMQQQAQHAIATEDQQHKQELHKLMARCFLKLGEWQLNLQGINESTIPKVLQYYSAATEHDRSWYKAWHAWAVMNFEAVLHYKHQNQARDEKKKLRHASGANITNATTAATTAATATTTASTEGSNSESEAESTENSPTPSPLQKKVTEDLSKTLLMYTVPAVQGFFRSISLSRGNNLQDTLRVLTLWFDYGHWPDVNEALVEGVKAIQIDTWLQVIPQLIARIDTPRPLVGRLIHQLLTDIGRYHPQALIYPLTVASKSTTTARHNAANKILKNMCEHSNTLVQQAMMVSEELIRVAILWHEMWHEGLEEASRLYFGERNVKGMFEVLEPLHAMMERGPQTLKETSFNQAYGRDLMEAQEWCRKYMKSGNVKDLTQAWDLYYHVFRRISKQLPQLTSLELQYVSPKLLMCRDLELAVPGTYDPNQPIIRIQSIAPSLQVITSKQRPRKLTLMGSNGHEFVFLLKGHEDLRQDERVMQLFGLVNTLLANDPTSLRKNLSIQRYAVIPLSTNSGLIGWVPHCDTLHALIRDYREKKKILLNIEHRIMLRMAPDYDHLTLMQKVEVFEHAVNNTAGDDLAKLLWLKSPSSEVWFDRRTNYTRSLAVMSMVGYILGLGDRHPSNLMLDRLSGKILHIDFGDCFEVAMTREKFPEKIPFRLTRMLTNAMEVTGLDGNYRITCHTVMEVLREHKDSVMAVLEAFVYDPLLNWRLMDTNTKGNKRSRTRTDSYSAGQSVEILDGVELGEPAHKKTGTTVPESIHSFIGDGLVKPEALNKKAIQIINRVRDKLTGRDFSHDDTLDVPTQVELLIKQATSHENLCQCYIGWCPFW
Procedure, shortened: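 Purified His-tagged human mTOR (1362–2549aa, from HEK293) was used with biotinylated peptide (8 μg/mL in enzyme solution) in HEPES pH 7.5 with 20 mM MnCl2. Compounds were diluted in 20 μM ATP solution, and the reaction ran 3 h at RT. Phospho-S6K(Thr389) HTRF was read as the 665/620 nm ratio, and IC50 came from % inhibition versus controls.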

| IC50 (human mTOR) [nM] | SMILES | GI50 (WM-266-4 cells) [nM] |
| --- | --- | --- |
| < 50 | CO[C@@H]1CC[C@H](Cn2c(=O)[nH]c3ncc(-c4cnc5[nH]ccc5c4C)cc32)OC1 [Example 146, 2,6-Anhydro-1,3,4-trideoxy-5-O-methyl-1-[6-(4-methyl-1H-pyrrolo[2,3-b]pyridin-5-yl)-2-oxo-2,3-dihydro-1H-imidazo[4,5-b]pyridin-1-yl]-L-threo-hexitol] | < 3000 |
| < 50 | Cc1c[nH]c2ncc(-c3cnc4[nH]c(=O)n(C[C@H]5COCCO5)c4c3)c(C)c12 [Example 124, 6-(3,4-Dimethyl-1H-pyrrolo[2,3-b]pyridin-5-yl)-1-[(2S)-1,4-dioxan-2-ylmethyl]-1,3-dihydro-2H-imidazo[4,5-b]pyridin-2-one] | < 3000 |
| < 50 | COc1c[nH]c2ncc(-c3cnc4[nH]c(=O)n(C[C@H]5COCCO5)c4c3)cc12 [Example 134, 1-[(2S)-1,4-Dioxan-2-ylmethyl]-6-(3-methoxy-1H-pyrrolo[2,3-b]pyridin-5-yl)-1,3-dihydro-2H-imidazo[4,5-b]pyridin-2-one] | < 3000 |
| < 50 | O=c1[nH]c2ncc(-c3cnc4[nH]cc(Cl)c4c3)cc2n1C[C@H]1CC[C@@H](O)CC1 [Example 116, 6-(3-Chloro-1H-pyrrolo[2,3-b]pyridin-5-yl)-1-[(cis-4-hydroxycyclohexyl)methyl]-1,3-dihydro-2H-imidazo[4,5-b]pyridin-2-one] | < 3000 |

More lines, now with the values behind:

| SMILES | IC50 (human mTOR) [nM] | GI50 (WM-266-4 cells) [nM] |
| --- | --- | --- |
| CO[C@@H]1COC[C@H](Cn2c(=O)[nH]c3ncc(-c4cnc5[nH]ccc5c4)cc32)C1 (racemic) [Example 67, 1-{[cis-5-Methoxytetrahydro-2H-pyran-3-yl]methyl}-6-(1H-pyrrolo[2,3-b]pyridin-5-yl)-1,3-dihydro-2H-imidazo[4,5-b]pyridin-2-one] | < 50 | < 3000 |
| CC(=O)N1CCN(CCn2c(=O)[nH]c3ncc(-c4cnc5[nH]ccc5c4)cc32)CC1 [Example 59, 1-[2-(4-Acetylpiperazin-1-yl)ethyl]-6-(1H-pyrrolo[2,3-b]pyridin-5-yl)-1,3-dihydro-2H-imidazo[4,5-b]pyridin-2-one] | < 50 | 3000 to 25000 |
| CCOC(=O)c1c[nH]c2ncc(-c3cnc4[nH]c(=O)n(CC5CCOCC5)c4c3)cc12 [Example 92, Ethyl 5-[2-oxo-1-(tetrahydro-2H-pyran-4-ylmethyl)-2,3-dihydro-1H-imidazo[4,5-b]pyridin-6-yl]-1H-pyrrolo[2,3-b]pyridine-3-carboxylate] | < 50 | < 3000 |
| CO[C@H]1CCC[C@@H](Cn2c(=O)[nH]c3ncc(-c4cnc5[nH]ccc5c4)cc32)C1 (racemic) [Example 105, 1-{[cis-3-Methoxycyclohexyl]methyl}-6-(1H-pyrrolo[2,3-b]pyridin-5-yl)-1,3-dihydro-2H-imidazo[4,5-b]pyridin-2-one] | < 50 | < 3000 |
| O=c1[nH]c2ncc(-c3cc4cc[nH]c4cn3)cc2n1CC1CCOCC1 [Example 83, 6-(1H-Pyrrolo[2,3-c]pyridin-5-yl)-1-(tetrahydro-2H-pyran-4-ylmethyl)-1,3-dihydro-2H-imidazo[4,5-b]pyridin-2-one] | < 50 | < 3000 |
| O=Cc1c[nH]c2ccc(-c3cnc4[nH]c(=O)n(CC5CCOCC5)c4c3)cc12 [Example 81, 5-[2-Oxo-1-(tetrahydro-2H-pyran-4-ylmethyl)-2,3-dihydro-1H-imidazo[4,5-b]pyridin-6-yl]-1H-indole-3-carbaldehyde] | < 50 | < 3000 |
| N#CC1(Cn2c(=O)[nH]c3ncc(-c4cnc5[nH]ccc5c4)cc32)CCOCC1 [Example 100, 4-{[2-Oxo-6-(1H-pyrrolo[2,3-b]pyridin-5-yl)-2,3-dihydro-1H-imidazo[4,5-b]pyridin-1-yl]methyl}tetrahydro-2H-pyran-4-carbonitrile] | < 50 | < 3000 |
